Results as given in PMC5460289, “Identification of New Shikonin Derivatives as Antitumor Agents Targeting STAT3 SH2 Domain” (Scientific Reports, 2017).

What was measured:
[1] = MTT anti-proliferation assay, non-tumorigenic cells; type: cell-based; conditions: human, non-tumorigenic MCF-10A cells, 24 h treatment
Description: (§1) Initial experiments were performed for evaluation of growth inhibition by the new compounds against six human breast cancer cell lines, including MCF-7 (ER+/PR+, HER-2-), BT474 (ER+/PR+, HER-2+), SKBR-3 (ER-/PR-/HER-2+), MDA-MB-436 (ER-/PR-/HER-2-), MDA-MB-231 (ER-/PR-/HER-2-), MDA-MB-468 (ER-/PR-/HER-2-) and non-tumorigenic MCF-10A cells. After 24 h treatment by the obtained compounds, the inhibition was assessed and the IC50 was summarized. […] Subsequently, the inhibition of STAT3 activation by PMM-172 and Stattic was evaluated using a dual-luciferase assay.
(§2) The anti-proliferative activities of the prepared compounds against MCF-7 (ER+/PR+, HER-2-), BT474 (ER+/PR+, HER-2+), SKBR-3 (ER-/PR-/HER-2+), MDA-MB-436 (ER-/PR-/HER-2-), MDA-MB-231 (ER-/PR-/HER-2-), MDA-MB-468 (ER-/PR-/HER-2-) and non-tumorigenic MCF-10A cell lines were evaluated using a standard (MTT)-based colorimetric assay with some modification. Cell lines were grown to log phase in DMEM supplemented with 10% fetal bovine serum. Cell suspensions were prepared and 100 μL/well dispensed into 96-well plates giving 10^4 cells/well. The subsequent incubation was permitted at 37 °C, 5% CO2 atmosphere for 24 h to allow the cells to reattach. Subsequently, cells were treated with the target compounds at increasing concentrations in the presence of 10% FBS for 24 h. Then, cell viability was assessed by the conventional 3-(4, 5-dimethylthiazol-2-yl)-2, 5-diphenyltetrazolium bromide (MTT) reduction assay and carried out strictly according to the manufacturer instructions. The absorbance (OD570) was read on an ELISA reader (Tecan, Austria). In all experiments, three replicate wells were used for each drug concentration. Each assay was carried out for at least three times.

BT-474 = assay: MTT anti-proliferation assay; type: cell-based, human; conditions: Homo sapiens, BT-474, 24 h treatment
Description: as §1, §2

MCF-7 = assay: MTT anti-proliferation assay; type: cell-based, human; conditions: Homo sapiens, MCF7, 24 h treatment
Description: as §1, §2

MDA-MB-231 = assay: MTT anti-proliferation assay; type: cell-based, human
Description: as §1, §2

MDA-MB-436 = assay: MTT anti-proliferation assay; type: cell-based, human; conditions: Homo sapiens, MDA-MB-436, 24 h treatment
Description: as §1, §2

MDA-MB-468 = assay: MTT anti-proliferation assay; type: cell-based, human; conditions: Homo sapiens, MDA-MB-468, 24 h treatment
Description: as §1, §2

SKBR-3 = assay: MTT anti-proliferation assay; type: cell-based, human; conditions: Homo sapiens, SK-BR-3, 24 h treatment
Description: as §1, §2

[2] = Homo sapiens, MDA-MB-231, 24 h treatment

CC(C)=CC[C@@H](OC(=O)CSc1nnc(-c2ccccc2)o1)C1=CC(=O)c2c(O)ccc(O)c2C1=O [PMM-158, (R)-1-(5,8-dihydroxy-1,4-dioxo-1,4-dihydronaphthalen-2-yl)-4-methylpent-3-en-1-yl 2-((5-phenyl-1,3,4-oxadiazol-2-yl)thio)acetate]
CC50 at 24 h [1]: 92.5 ± 0.27 µM
IC50 (BT-474): 15.6 ± 1.03 µM
IC50 (MCF-7): 12.1 ± 0.42 µM
IC50 (MDA-MB-231; [2]): 9.17 ± 0.99 µM
IC50 (MDA-MB-436): 10.1 ± 0.92 µM
IC50 (MDA-MB-468): 10.6 ± 0.65 µM
IC50 (SKBR-3): 11.5 ± 0.74 µM

CC(C)=CC[C@@H](OC(=O)CSc1nnc(-c2ccc(F)cc2)o1)C1=CC(=O)c2c(O)ccc(O)c2C1=O [PMM-159, (R)-1-(5,8-dihydroxy-1,4-dioxo-1,4-dihydronaphthalen-2-yl)-4-methylpent-3-en-1-yl 2-((5-(4-fluorophenyl)-1,3,4-oxadiazol-2-yl)thio)acetate]
CC50 at 24 h [1]: 89.5 ± 0.99 µM
IC50 (BT-474): 10.8 ± 0.94 µM
IC50 (MCF-7): 9.22 ± 0.13 µM
IC50 (MDA-MB-231; [2]): 7.24 ± 0.82 µM
IC50 (MDA-MB-436): 8.49 ± 0.78 µM
IC50 (MDA-MB-468): 8.23 ± 1.27 µM
IC50 (SKBR-3): 8.95 ± 0.69 µM

CC(C)=CC[C@@H](OC(=O)CSc1nnc(-c2cccc(F)c2)o1)C1=CC(=O)c2c(O)ccc(O)c2C1=O [PMM-160, (R)-1-(5,8-dihydroxy-1,4-dioxo-1,4-dihydronaphthalen-2-yl)-4-methylpent-3-en-1-yl 2-((5-(3-fluorophenyl)-1,3,4-oxadiazol-2-yl)thio)acetate]
CC50 at 24 h [1]: 68.3 ± 0.27 µM
IC50 (BT-474): 18.3 ± 1.24 µM
IC50 (MCF-7): 15.3 ± 0.52 µM
IC50 (MDA-MB-231; [2]): 9.66 ± 1.21 µM
IC50 (MDA-MB-436): 11.8 ± 0.86 µM
IC50 (MDA-MB-468): 12.4 ± 0.52 µM
IC50 (SKBR-3): 10.5 ± 0.88 µM

CC(C)=CC[C@@H](OC(=O)CSc1nnc(-c2ccccc2F)o1)C1=CC(=O)c2c(O)ccc(O)c2C1=O [PMM-161, (R)-1-(5,8-dihydroxy-1,4-dioxo-1,4-dihydronaphthalen-2-yl)-4-methylpent-3-en-1-yl 2-((5-(2-fluorophenyl)-1,3,4-oxadiazol-2-yl)thio)acetate]
CC50 at 24 h [1]: 84.5 ± 0.74 µM
IC50 (BT-474): 11.1 ± 1.12 µM
IC50 (MCF-7): 9.81 ± 0.49 µM
IC50 (MDA-MB-231; [2]): 8.58 ± 0.53 µM
IC50 (MDA-MB-436): 9.55 ± 0.83 µM
IC50 (MDA-MB-468): 8.97 ± 1.05 µM
IC50 (SKBR-3): 9.29 ± 0.66 µM

CC(C)=CC[C@@H](OC(=O)CSc1nnc(-c2ccc(Cl)cc2)o1)C1=CC(=O)c2c(O)ccc(O)c2C1=O [PMM-162, (R)-1-(5,8-dihydroxy-1,4-dioxo-1,4-dihydronaphthalen-2-yl)-4-methylpent-3-en-1-yl 2-((5-(4-chlorophenyl)-1,3,4-oxadiazol-2-yl)thio)acetate]
CC50 at 24 h [1]: 91.9 ± 1.21 µM
IC50 (BT-474): 9.54 ± 0.91 µM
IC50 (MCF-7): 9.01 ± 0.92 µM
IC50 (MDA-MB-231; [2]): 6.14 ± 1.05 µM
IC50 (MDA-MB-436): 7.28 ± 0.77 µM
IC50 (MDA-MB-468): 6.85 ± 0.92 µM
IC50 (SKBR-3): 8.03 ± 0.83 µM

CC(C)=CC[C@@H](OC(=O)CSc1nnc(-c2cccc(Cl)c2)o1)C1=CC(=O)c2c(O)ccc(O)c2C1=O [PMM-163, (R)-1-(5,8-dihydroxy-1,4-dioxo-1,4-dihydronaphthalen-2-yl)-4-methylpent-3-en-1-yl 2-((5-(3-chlorophenyl)-1,3,4-oxadiazol-2-yl)thio)acetate]
CC50 at 24 h [1]: 86.2 ± 0.33 µM
IC50 (BT-474): 9.27 ± 0.86 µM
IC50 (MCF-7): 8.69 ± 0.83 µM
IC50 (MDA-MB-231; [2]): 6.04 ± 0.59 µM
IC50 (MDA-MB-436): 7.09 ± 0.63 µM
IC50 (MDA-MB-468): 7.83 ± 0.55 µM
IC50 (SKBR-3): 7.56 ± 0.72 µM

CC(C)=CC[C@@H](OC(=O)CSc1nnc(-c2ccccc2Cl)o1)C1=CC(=O)c2c(O)ccc(O)c2C1=O [PMM-164, (R)-1-(5,8-dihydroxy-1,4-dioxo-1,4-dihydronaphthalen-2-yl)-4-methylpent-3-en-1-yl 2-((5-(2-chlorophenyl)-1,3,4-oxadiazol-2-yl)thio)acetate]
CC50 at 24 h [1]: 74.6 ± 0.55 µM
IC50 (BT-474): 7.09 ± 0.65 µM
IC50 (MCF-7): 5.71 ± 0.52 µM
IC50 (MDA-MB-231; [2]): 3.76 ± 1.02 µM
IC50 (MDA-MB-436): 4.41 ± 0.55 µM
IC50 (MDA-MB-468): 3.94 ± 0.73 µM
IC50 (SKBR-3): 4.49 ± 0.58 µM

CC(C)=CC[C@@H](OC(=O)CSc1nnc(-c2ccc(Br)cc2)o1)C1=CC(=O)c2c(O)ccc(O)c2C1=O [PMM-165, (R)-1-(5,8-dihydroxy-1,4-dioxo-1,4-dihydronaphthalen-2-yl)-4-methylpent-3-en-1-yl 2-((5-(4-bromophenyl)-1,3,4-oxadiazol-2-yl)thio)acetate]
CC50 at 24 h [1]: 83.7 ± 1.28 µM
IC50 (BT-474): 9.22 ± 0.98 µM
IC50 (MCF-7): 9.38 ± 0.66 µM
IC50 (MDA-MB-231; [2]): 5.47 ± 1.01 µM
IC50 (MDA-MB-436): 5.97 ± 0.67 µM
IC50 (MDA-MB-468): 6.58 ± 0.15 µM
IC50 (SKBR-3): 6.23 ± 0.73 µM

CC(C)=CC[C@@H](OC(=O)CSc1nnc(-c2cccc(Br)c2)o1)C1=CC(=O)c2c(O)ccc(O)c2C1=O [PMM-166, (R)-1-(5,8-dihydroxy-1,4-dioxo-1,4-dihydronaphthalen-2-yl)-4-methylpent-3-en-1-yl 2-((5-(3-bromophenyl)-1,3,4-oxadiazol-2-yl)thio)acetate]
CC50 at 24 h [1]: 69.9 ± 0.58 µM
IC50 (BT-474): 6.91 ± 0.73 µM
IC50 (MCF-7): 6.41 ± 0.75 µM
IC50 (MDA-MB-231; [2]): 3.64 ± 0.91 µM
IC50 (MDA-MB-436): 4.66 ± 0.59 µM
IC50 (MDA-MB-468): 4.07 ± 0.66 µM
IC50 (SKBR-3): 4.87 ± 0.58 µM

CC(C)=CC[C@@H](OC(=O)CSc1nnc(-c2ccccc2Br)o1)C1=CC(=O)c2c(O)ccc(O)c2C1=O [PMM-167, (R)-1-(5,8-dihydroxy-1,4-dioxo-1,4-dihydronaphthalen-2-yl)-4-methylpent-3-en-1-yl 2-((5-(2-bromophenyl)-1,3,4-oxadiazol-2-yl)thio)acetate]
CC50 at 24 h [1]: 72.5 ± 1.53 µM
IC50 (BT-474): 13.7 ± 0.92 µM
IC50 (MCF-7): 15.3 ± 0.61 µM
IC50 (MDA-MB-231; [2]): 9.01 ± 0.56 µM
IC50 (MDA-MB-436): 10.6 ± 0.82 µM
IC50 (MDA-MB-468): 12.2 ± 0.42 µM
IC50 (SKBR-3): 9.76 ± 0.95 µM

COc1cccc(-c2nnc(SCC(=O)O[C@H](CC=C(C)C)C3=CC(=O)c4c(O)ccc(O)c4C3=O)o2)c1 [PMM-169, (R)-1-(5,8-dihydroxy-1,4-dioxo-1,4-dihydronaphthalen-2-yl)-4-methylpent-3-en-1-yl 2-((5-(3-methoxyphenyl)-1,3,4-oxadiazol-2-yl)thio)acetate]
CC50 at 24 h [1]: 99.5 ± 0.49 µM
IC50 (BT-474): 8.36 ± 0.97 µM
IC50 (MCF-7): 8.12 ± 0.98 µM
IC50 (MDA-MB-231; [2]): 5.33 ± 0.77 µM
IC50 (MDA-MB-436): 7.36 ± 0.87 µM
IC50 (MDA-MB-468): 7.22 ± 1.11 µM
IC50 (SKBR-3): 6.95 ± 0.82 µM

COc1ccccc1-c1nnc(SCC(=O)O[C@H](CC=C(C)C)C2=CC(=O)c3c(O)ccc(O)c3C2=O)o1 [PMM-170, (R)-1-(5,8-dihydroxy-1,4-dioxo-1,4-dihydronaphthalen-2-yl)-4-methylpent-3-en-1-yl 2-((5-(2-methoxyphenyl)-1,3,4-oxadiazol-2-yl)thio)acetate]
CC50 at 24 h [1]: 94.6 ± 0.83 µM
IC50 (BT-474): 12.7 ± 1.06 µM
IC50 (MCF-7): 9.73 ± 1.03 µM
IC50 (MDA-MB-231; [2]): 4.31 ± 0.65 µM
IC50 (MDA-MB-436): 6.88 ± 0.73 µM
IC50 (MDA-MB-468): 8.44 ± 0.78 µM
IC50 (SKBR-3): 8.27 ± 0.69 µM

CC(C)=CC[C@@H](OC(=O)CSc1nnc(-c2ccc(C)cc2)o1)C1=CC(=O)c2c(O)ccc(O)c2C1=O [PMM-173, (R)-1-(5,8-dihydroxy-1,4-dioxo-1,4-dihydronaphthalen-2-yl)-4-methylpent-3-en-1-yl 2-((5-(p-tolyl)-1,3,4-oxadiazol-2-yl)thio)acetate]
CC50 at 24 h [1]: 88.9 ± 0.34 µM
IC50 (BT-474): 6.03 ± 0.71 µM
IC50 (MCF-7): 5.58 ± 0.83 µM
IC50 (MDA-MB-231; [2]): 2.59 ± 0.19 µM
IC50 (MDA-MB-436): 4.06 ± 0.53 µM
IC50 (MDA-MB-468): 3.76 ± 0.88 µM
IC50 (SKBR-3): 3.59 ± 0.49 µM

CC(C)=CC[C@@H](O)C1=CC(=O)c2c(O)ccc(O)c2C1=O [Shikonin, shikonin]
CC50 at 24 h [1]: 23.5 ± 1.01 µM
IC50 (BT-474): 5.74 ± 0.66 µM
IC50 (MCF-7): 4.57 ± 0.69 µM
IC50 (MDA-MB-231; 24 h treatment): 2.88 ± 0.25 µM
IC50 (MDA-MB-231; Homo sapiens, MDA-MB-231, 24 h, 24 h treatment): 3.28 ± 0.41 µM
IC50 (MDA-MB-436): 3.28 ± 0.41 µM
IC50 (MDA-MB-468): 3.61 ± 0.34 µM
IC50 (SKBR-3): 3.75 ± 0.52 µM
